Reference: patent US12559529B2, “NPY2 receptor agonists” (Boehringer Ingelheim International GmbH, priority 2019, dated 2026)
*1 amine or outer side, *2 acyl side, *3 side chain or, on linkers, in order; H or OH if unused. Where a SMILES comes first, the peptide text is derived from it. Side-chain parts run from the residue outwards. The star is where a group is joined. C18 diacid = O=C(O)CCCCCCCCCCCCCCCCC(=O)*; γGlu = O=C(O)[C@H](CCC(=O)[*:2])N[*:1]; Isovaleryl = CC(C)CC(=O)*; AEEA = NCCOCCOCC(=O)O

These compounds were tested against T1, Human Neuropeptide Y2 Receptor (Homo sapiens, UniProt P49146) (assay: Radioligand binding competition assay (RLB)). Details: Table 3; human 125I-PYY (1-36) 0.02 nM, Y2 receptor membranes; read-out: Ki.
T1 construct: purchased CHEMICON HTS066M
T1 sequence (P49146 1-381): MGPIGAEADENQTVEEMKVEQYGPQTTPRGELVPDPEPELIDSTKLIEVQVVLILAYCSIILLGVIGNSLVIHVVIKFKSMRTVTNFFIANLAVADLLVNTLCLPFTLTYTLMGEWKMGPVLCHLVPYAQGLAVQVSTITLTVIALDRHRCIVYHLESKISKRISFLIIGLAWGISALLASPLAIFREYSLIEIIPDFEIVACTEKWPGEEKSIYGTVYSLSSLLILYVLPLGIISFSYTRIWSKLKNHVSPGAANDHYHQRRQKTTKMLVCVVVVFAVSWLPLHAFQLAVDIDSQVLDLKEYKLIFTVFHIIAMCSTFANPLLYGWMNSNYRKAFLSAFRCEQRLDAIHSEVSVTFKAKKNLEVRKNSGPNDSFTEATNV
Summary of the method: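 Competition binding at commercial human NPY Y2 membrane preparations, 0.5 μg protein per well, 2 h incubation at room temperature. Bound and free ligand were separated on GF/C filters and counted; IC50 was fitted by nonlinear regression.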

Row | Ki [nM] | SMILES
1 | 0.42 | CC(C)CC(=O)N[C@@H](C)C(=O)N1CCC[C@H]1C(=O)N[C@@H](CCC(=O)O)C(=O)N[C@@H](CCCCNC(=O)COCCOCCNC(=O)COCCOCCNC(=O)CC[C@H](NC(=O)CCCCCCCCCCCCCCCCC(=O)O)C(=O)O)C(=O)N1CCC[C@H]1C(=O)N1CCC[C@H]1C(=O)N[C@@H](C)C(=O)N[C@@H](CC(=O)O)C(=O)N[C@@H](C)C(=O)N[C@@H](CO)C(=O)N1CCC[C@H]1C(=O)N[C@@H](CCC(=O)O)C(=O)N[C@@H](CCC(=O)O)C(=O)N[C@@H](CC(C)C)C(=O)N[C@@H](CCC(N)=O)C(=O)N[C@@H](CCCNC(=N)N)C(=O)N[C@@H](Cc1ccc(O)cc1)C(=O)N[C@@H](Cc1ccc(O)cc1)C(=O)N[C@H](C(=O)N[C@@H](CO)C(=O)N[C@@H](CC(C)C)C(=O)N[C@@H](CCCNC(=N)N)C(=O)N[C@@H](Cc1c[nH]cn1)C(=O)N[C@@H](Cc1ccc(O)cc1)C(=O)N[C@@H](Cc1ccc(O)cc1)C(=O)N[C@@H](CC(N)=O)C(=O)N[C@@H](Cc1c[nH]c2ccccc12)C(=O)N[C@@H](CC(C)C)C(=O)N[C@H](C(=O)N[C@@H](CCCNC(=N)N)C(=O)N[C@@H](CCC(N)=O)C(=O)N[C@@H](CCCNC(=N)N)C(=O)N[C@@H](Cc1ccc(O)cc1)C(N)=O)[C@@H](C)O)C(C)C [Compound 47, N{alpha-4}-(3-methylbutanoyl)-N{epsilon-7}-[2-(2-{2-[2-(2-{2-[(4S)-4-carboxy-4-(17-carboxyheptadecanamido)butanamido]ethoxy}ethoxy)acetamido]ethoxy}ethoxy)acetamido]-[4A,7K,9P,10A,18Q,22V,28Y,30W,31L]hPYY (4-36)]
2 | 38.9 | CC(C)CC(=O)N[C@@H](C)C(=O)N1CCC[C@H]1C(=O)N[C@@H](CCC(=O)O)C(=O)N[C@@H](CCCCNC(=O)COCCOCCNC(=O)COCCOCCNC(=O)CC[C@H](NC(=O)CCCCCCCCCCCCCCCCC(=O)O)C(=O)O)C(=O)N1CCC[C@H]1C(=O)N[C@@H](CCC(=O)O)C(=O)N[C@@H](CCC(=O)O)C(=O)N[C@@H](CC(=O)O)C(=O)N[C@H](C(=O)N[C@@H](CCC(=O)O)C(=O)N1CCC[C@H]1C(=O)N[C@@H](CCC(=O)O)C(=O)N[C@@H](CCC(=O)O)C(=O)N[C@@H](CC(C)C)C(=O)N[C@@H](CCC(N)=O)C(=O)N[C@@H](CCCNC(=N)N)C(=O)N[C@@H](Cc1ccc(O)cc1)C(=O)N[C@@H](Cc1ccc(O)cc1)C(=O)N[C@H](C(=O)N[C@@H](CO)C(=O)N[C@@H](CC(C)C)C(=O)N[C@@H](CCCNC(=N)N)C(=O)N[C@@H](Cc1c[nH]cn1)C(=O)N[C@@H](Cc1ccc(O)cc1)C(=O)N[C@@H](Cc1ccc(O)cc1)C(=O)N[C@@H](CC(N)=O)C(=O)N[C@@H](Cc1c[nH]c2ccccc12)C(=O)N[C@@H](CC(C)C)C(=O)N[C@H](C(=O)N[C@@H](CCCNC(=N)N)C(=O)N[C@@H](CCC(N)=O)C(=O)N[C@@H](CCCNC(=N)N)C(=O)N[C@@H](Cc1ccc(O)cc1)C(N)=O)[C@@H](C)O)C(C)C)[C@@H](C)O [Compound 48, N{alpha-4}-(3-methylbutanoyl)-N{epsilon-7}-[2-(2-{2-[2-(2-{2-[(4S)-4-carboxy-4-(17-carboxyheptadecanamido)butanamido]ethoxy}ethoxy)acetamido]ethoxy}ethoxy)acetamido]-[4A,7K,9E,12T,13E,18Q,22V,28Y,30W,31L]hPYY (4-36)]
3 | 39.4 | CC(C)CC(=O)N[C@@H](C)C(=O)N1CCC[C@H]1C(=O)N[C@@H](CCC(=O)O)C(=O)N[C@@H](CCCCNC(=O)COCCOCCNC(=O)COCCOCCNC(=O)CC[C@H](NC(=O)CCCCCCCCCCCCCCCCC(=O)O)C(=O)O)C(=O)N[C@@H](C)C(=O)N[C@@H](CCC(=O)O)C(=O)N[C@@H](CCC(=O)O)C(=O)N[C@@H](CCC(=O)O)C(=O)N[C@@H](C)C(=O)N[C@@H](CO)C(=O)N1CCC[C@H]1C(=O)N[C@@H](CCC(=O)O)C(=O)N[C@@H](CCC(=O)O)C(=O)N[C@@H](CC(C)C)C(=O)N[C@@H](CCC(N)=O)C(=O)N[C@@H](CCCNC(=N)N)C(=O)N[C@@H](Cc1ccc(O)cc1)C(=O)N[C@@H](Cc1ccc(O)cc1)C(=O)N[C@H](C(=O)N[C@@H](CO)C(=O)N[C@@H](CC(C)C)C(=O)N[C@@H](CCCNC(=N)N)C(=O)N[C@@H](Cc1c[nH]cn1)C(=O)N[C@@H](Cc1ccc(O)cc1)C(=O)N[C@@H](Cc1ccc(O)cc1)C(=O)N[C@@H](CC(N)=O)C(=O)N[C@@H](Cc1c[nH]c2ccccc12)C(=O)N[C@@H](CC(C)C)C(=O)N[C@H](C(=O)N[C@@H](CCCNC(=N)N)C(=O)N[C@@H](CCC(N)=O)C(=O)N[C@@H](CCCNC(=N)N)C(=O)N[C@@H](Cc1ccc(O)cc1)C(N)=O)[C@@H](C)O)C(C)C [Compound 51, N{alpha-4}-(3-methylbutanoyl)-N{epsilon-7}-[2-(2-{2-[2-(2-{2-[(4S)-4-carboxy-4-(17-carboxyheptadecanamido)butanamido]ethoxy}ethoxy)acetamido]ethoxy}ethoxy)acetamido]-[4A,7K,8A,9E,11E,18Q,22V,28Y,30W,31L]hPYY (4-36)] (Isovaleryl-APEK([AEEA-AEEA-γGlu-C18 diacid])AEEEASPEELQRYYVSLRHYYNWLTRQRY-NH2)
4 | 8.53 | CC(C)CC(=O)N[C@@H](C)C(=O)N1CCC[C@H]1C(=O)N[C@@H](CCC(=O)O)C(=O)N[C@@H](CCCCNC(=O)COCCOCCNC(=O)COCCOCCNC(=O)CC[C@H](NC(=O)CCCCCCCCCCCCCCCCC(=O)O)C(=O)O)C(=O)N[C@@H](C)C(=O)N[C@@H](CCC(=O)O)C(=O)N[C@@H](CCC(=O)O)C(=O)N[C@@H](CC(=O)O)C(=O)N[C@@H](C)C(=O)N[C@@H](CO)C(=O)N[C@@H](CCC(=O)O)C(=O)N[C@@H](CCC(=O)O)C(=O)N[C@@H](CCC(=O)O)C(=O)N[C@@H](CC(C)C)C(=O)N[C@@H](CCC(N)=O)C(=O)N[C@@H](CCCNC(=N)N)C(=O)N[C@@H](Cc1ccc(O)cc1)C(=O)N[C@@H](Cc1ccc(O)cc1)C(=O)N[C@H](C(=O)N[C@@H](CO)C(=O)N[C@@H](CC(C)C)C(=O)N[C@@H](CCCNC(=N)N)C(=O)N[C@@H](Cc1c[nH]cn1)C(=O)N[C@@H](Cc1ccc(O)cc1)C(=O)N[C@@H](Cc1ccc(O)cc1)C(=O)N[C@@H](CC(N)=O)C(=O)N[C@@H](Cc1c[nH]c2ccccc12)C(=O)N[C@@H](CC(C)C)C(=O)N[C@H](C(=O)N[C@@H](CCCNC(=N)N)C(=O)N[C@@H](CCC(N)=O)C(=O)N[C@@H](CCCNC(=N)N)C(=O)N[C@@H](Cc1ccc(O)cc1)C(N)=O)[C@@H](C)O)C(C)C [Compound 52, N{alpha-4}-(3-methylbutanoyl)-N{epsilon-7}-[2-(2-{2-[2-(2-{2-[(4S)-4-carboxy-4-(17-carboxyheptadecanamido)butanamido]ethoxy}ethoxy)acetamido]ethoxy}ethoxy)acetamido]-[4A,7K,8A,9E,14E,18Q,22V,28Y,30W,31L]hPYY (4-36)]
5 | 3.35 | CC(C)CC(=O)N[C@@H](C)C(=O)N1CCC[C@H]1C(=O)N[C@@H](CCC(=O)O)C(=O)N[C@@H](CCCCNC(=O)COCCOCCNC(=O)COCCOCCNC(=O)CC[C@H](NC(=O)CCCCCCCCCCCCCCCCC(=O)O)C(=O)O)C(=O)N1CCC[C@H]1C(=O)N[C@@H](CCC(=O)O)C(=O)N[C@@H](CCC(=O)O)C(=O)N[C@@H](CC(=O)O)C(=O)N[C@@H](C)C(=O)N[C@@H](CO)C(=O)N1CCC[C@H]1C(=O)N[C@@H](CCC(=O)O)C(=O)N[C@@H](CCC(=O)O)C(=O)N[C@@H](C)C(=O)N[C@@H](CCC(N)=O)C(=O)N[C@@H](CCCNC(=N)N)C(=O)N[C@@H](Cc1ccc(O)cc1)C(=O)N[C@@H](Cc1ccc(O)cc1)C(=O)N[C@H](C(=O)N[C@@H](CO)C(=O)N[C@@H](CC(C)C)C(=O)N[C@@H](CCCNC(=N)N)C(=O)N[C@@H](Cc1c[nH]cn1)C(=O)N[C@@H](Cc1ccc(O)cc1)C(=O)N[C@@H](Cc1ccc(O)cc1)C(=O)N[C@@H](CC(N)=O)C(=O)N[C@@H](Cc1c[nH]c2ccccc12)C(=O)N[C@@H](CC(C)C)C(=O)N[C@H](C(=O)N[C@@H](CCCNC(=N)N)C(=O)N[C@@H](CCC(N)=O)C(=O)N[C@@H](CCCNC(=N)N)C(=O)N[C@@H](Cc1ccc(O)cc1)C(N)=O)[C@@H](C)O)C(C)C [Compound 55, N{alpha-4}-(3-methylbutanoyl)-N{epsilon-7}-[2-(2-{2-[2-(2-{2-[(4S)-4-carboxy-4-(17-carboxyheptadecanamido)butanamido]ethoxy}ethoxy)acetamido]ethoxy}ethoxy)acetamido]-[4A,7K,9E,17A,18Q,22V,28Y,30W,31L]hPYY (4-36)]
